Test results: PubChem BioAssay AID179 (DTP/NCI, 2004)
Calls of active or inactive are those of the source.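 The calls were made as follows: active = compounds giving half or more protection of infected cells from virus-caused growth loss, again on retest; inactive = the rest.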

Test system: CEM cells HIV-1 protection, formazan growth assay
Test: NCI AIDS Antiviral Assay
Details: for IC50: measured here: growth of uninfected CEM cells
How it was run: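 Steps: treat uninfected and HIV-1-infected human CEM cells at five drug levels; quantify growth by soluble formazan; retest any compound reaching 50% protection; classify actives from the retest.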

Compound	EC50	IC50	outcome
Cc1cc(Cl)cc2c1NC(=O)C2(O)CC(=O)c1ccco1 (centres undefined)	> 117 µM	63.1 µM	
C/C(C=O)=C\c1cccc(F)c1	> 158 µM	> 158 µM	
CC1CC(C2=CC=CCS2)=Nc2ccccc2S1 (centres undefined)	> 55 µM	53.7 µM	
COc1ccc(CC2NCCc3cc(OC)c(OC)cc32)cc1 (centres undefined)	> 794 µM	138 µM	
COc1ccc(NC(=O)C(=O)C2NC(=S)NC2=O)c(OC)c1 (centres undefined)	> 776 µM	> 776 µM	
O=C(CC(=O)N(C(=O)/C=C\c1ccccc1)c1ccc(Cl)cc1)N1N=C(c2ccccc2)C(N=Nc2cccc([N+](=O)[O-])c2)C1=O (centres undefined)	> 200 µM	3.55 µM	
COc1ccc(S(=O)(=O)O)cc1NS(=O)(=O)c1ccc(C)cc1	> 200 µM	> 200 µM	
C[N+](C)(C)CC(=O)N/N=C(\C(=O)NC1=C(Cl)C(=O)c2ccccc2C1=O)C(C#N)c1csc(-c2ccc([N+](=O)[O-])cc2)n1 (centres undefined)			inactive
O=S(=O)(O)C(Cc1nc2ccccc2[nH]1)S(=O)(=O)OCCC1S(=O)(=O)OCCOS1(=O)=O (centres undefined)	> 200 µM	107 µM	
Cc1nnc2sc(Cl)nn12	> 200 µM	6.17 µM	
NCCc1ccc(O)c(O)c1	> 200 µM	132 µM	
CCN(CC)CCNc1ccc(Cl)cc1N	> 200 µM	39.8 µM	
CC(=O)Nc1ccc(/C=C2\C=Cc3ccccc32)cc1	> 20 µM	13.2 µM	
O=c1[nH]c(=O)n(COCc2ccccc2)c2ccccc12	> 200 µM	174 µM	
Cc1sc2ccc3ccccc3c2[n+]1C	> 200 µM	45.7 µM	
CN(C)CCSC(=Nc1ccccc1)N1C=COC=C1	> 871 µM	44.7 µM	
COc1ccc2c(C)cc(N/N=C(\C)C=O)nc2c1	> 200 µM	4.07 µM	
C=CCC1C(=O)CC2(C)CC(=O)C(CC=C)C12C (centres undefined)			inactive
CC(C)C[S+]1C2=C([O-])CC(C)(C)CC2=Nc2ccccc21 (centres undefined)	> 200 µM	> 200 µM	
CC1=CCN(C2CC(C)C(=O)N2)C1=O (centres undefined)			inactive
C=CCC(O)C1=CC(=O)c2c(O)ccc(O)c2C1=O (centres undefined)			inactive
CC(C)CCC[C@@H](C)[C@H]1CCC2[C@@H]3CC[C@H]4C[C@@H](CCC=C(c5cc(Cl)c(OCc6ccc(-c7ccc(C(=O)O)cc7)cc6)c(C(=O)O)c5)c5cc(Cl)c(OCc6ccc(-c7ccc(C(=O)O)cc7)cc6)c(C(=O)O)c5)CC[C@]4(C)[C@H]3CC[C@@]21C (some centres undefined)	> 200 µM	170 µM	

Compound	EC50	IC50	outcome
NC(=O)c1ccc2cc(O)c(O)cc2c1	> 245 µM	34.7 µM	
COC(=O)c1cc(C(=CCC[C@H]2CC[C@@]3(C)C(CC[C@@H]4C3CC[C@@]3(C)C4CC[C@@H]3[C@H](C)CCCC(C)C)C2)c2cc(Cl)c(OC)c(C(=O)OC)c2)cc(Cl)c1OC (some centres undefined)	> 15.8 µM	> 15.8 µM	
C[C@]12CC[C@H](O)CC1=CC[C@@H]1C2CC[C@]2(C)NC(=O)C(C#N)CC12 (some centres undefined)			inactive
O=C(CC(O)(C(F)(F)F)C(F)(F)F)c1cccc(Cl)c1	> 200 µM	182 µM	
CN(C)CCN1C(=O)C2(C)C3CCC(O3)C2(C)C1=O (centres undefined)	141 µM	170 µM	
CC(=O)OCCOCn1c2ccccc2c2c3c(c4c5ccccc5n(COCCO)c4c21)C(=O)N(Cc1ccccc1)C3=O			inactive
CC1(C)CNCC2(C)OCCCOC3(C)CNCC(C)(C)NC(=O)C(C)(CNCC(C)(C)NC3=O)OCCCOC(C)(CNCC(C)(C)NC2=O)C(=O)N1	> 200 µM	> 200 µM	
CCOC(=O)/C(=C/c1ccc(C(=O)OC)cc1)N(CC)CC	> 427 µM	67.6 µM	
CN(C)c1ccc2c(c1)-c1cc(N(C)C)ccc1C2=C/C=C1\C(=O)c2ccccc2C1=C(C#N)C#N	> 15.5 µM	> 15.5 µM	
Cc1ccc(N=NN(C)C(C)C(O)Cc2ccccc2)cc1 (centres undefined)	> 200 µM	77.6 µM	
S=C(c1c[nH]c2ccccc12)N1CCN(Cc2ccccc2)CC1	> 200 µM	37.2 µM	
O=C(CCc1ccccc1)On1nnc2ccccc2c1=O			inactive
CCCCCCCCCCCc1c2[nH]c3cc(C)ccc3oc2cc2[nH]c3cc(C)ccc3oc12	> 2 µM	> 2 µM	
[Cu+2].c1nnc(N2CNCCNCN(c3nnc[n-]3)CNCCNC2)[n-]1	> 200 µM	> 200 µM	
Cc1ccccc1NC(=O)Cc1csc(N=Nc2c(O)[nH]c3ccccc23)n1	> 200 µM	> 200 µM	
Clc1ccc(-c2c3nc(c(-c4ccc(Cl)cc4)c4ccc([nH]4)c(-c4ccc(Cl)cc4)c4nc(c(-c5ccc(Cl)cc5)c5ccc2[nH]5)C=C4)C=C3)cc1	> 200 µM	> 200 µM	
CC1=C(C#N)C2(C(=O)Nc3ccccc32)C(C#N)=C(C)N1	> 162 µM	> 162 µM	
Cc1cn(C(Cc2ccccc2)OCCO)c(=O)[nH]c1=O (centres undefined)	> 200 µM	> 200 µM	
Cc1ccc(NC(=O)CC/C(CC(=O)c2ccc(Cl)cc2)=N\NC(=O)C(=O)NN)cc1C	> 8.32 µM	> 8.32 µM	
CC(=O)NNC(=S)N/C=C(\C#N)C(=O)c1ccc2ccccc2c1	> 200 µM	> 200 µM	
COC1/C=C/OC2(C)Oc3c(C)c(O)c4c(O)c(c(/C=N/NC5C6CC7CC(C6)CC5C7)c(O)c4c3C2=O)NC(=O)/C(C)=C/C=C/C(C)C(O)C(C)C(O)C(C)C(OC(C)=O)C1C (centres undefined)	> 200 µM	9.12 µM	
